The values that follow come from patent publication US20040062848A1, “Lapactic agent” (priority 2002, published 2004).

This data set in a line: Acute toxicity (LD50). Particulars: in vivo.

As for ε-polylysine hydrochloride, the “acute toxicity in LD50” value is at least 5000 mg/kg.
